In the experiment the test system is MCH receptors. As to the kind of experiment: MCH receptor activity class (method not given).
[1] abbreviates: class by percent of control at 10^-7 M or IC50.
The mark [2] stands for this setting: class by percent of control at 10^−7 M or IC50.

Structures are written as SMILES.

As to `Cc1ccc([N+](=O)[O-])c(NC(=O)NC[C@H]2CC[C@@H](Nc3nc4c(c(N(C)C)n3)CCCC4)CC2)c1C` [compound 2489], the class under setting [1] is listed as 2 (Class 2: The value of percent of control at 10^−7 M was from 40% to 60% or the value of IC′50 was from 50 nM to 200 nM.). Same read-out and setting: for `CN(C)c1nc(N[C@H]2CC[C@@H](CNC(=O)Nc3c(Br)cc(F)cc3Br)CC2)nc2c1CCCC2` [compound 2490, N-(2,6-dibromo-4-fluorophenyl)-N′-[(cis-4-{[4-(dimethylamino)-5,6,7,8-tetrahydroquinazolin-2-yl]amino}cyclohexyl)methyl]urea] the value was 1 (Class 1: The value of percent of control at 10^−7 M was less than 40% or the value of IC50 was less than 50 nM.); for `CN(C)c1nc(N[C@H]2CC[C@@H](CNC(=O)Nc3c(Cl)cccc3Cl)CC2)nc2c1CCCC2` [compound 2491, N-(2,6-dichlorophenyl)-N′-[(cis-4-{[4-(dimethylamino)-5,6,7,8-tetrahydroquinazolin-2-yl]amino}cyclohexyl)methyl]urea], 1 (Class 1: The value of percent of control at 10^−7 M was less than 40% or the value of IC50 was less than 50 nM.); for `COc1ccc(C)cc1NC(=O)NC[C@H]1CC[C@@H](Nc2nc3c(c(N(C)C)n2)CCCC3)CC1` [compound 2492], 3 (Class 3 The value of percent of control at 10^−7 M was more than 60% or the value of IC50 was more than 200 nM.). On to `Cc1cccc([N+](=O)[O-])c1NC(=O)NC[C@H]1CC[C@@H](Nc2nc3c(c(N(C)C)n2)CCCC3)CC1` [compound 2493], for which the class under setting [1] was 3 (Class 3 The value of percent of control at 10^−7 M was more than 60% or the value of IC50 was more than 200 nM.). The same measure, in the same setting: for `CN(C)c1nc(N[C@H]2CC[C@@H](CNC(=O)Nc3ccc(F)c(F)c3)CC2)nc2c1CCCC2` [compound 2494] the value was 3 (Class 3 The value of percent of control at 10^−7 M was more than 60% or the value of IC50 was more than 200 nM.). `CN(C)c1nc(N[C@H]2CC[C@@H](CNC(=O)Nc3cc(F)cc(F)c3)CC2)nc2c1CCCC2` [compound 2495]: under setting [1], the class is 3 (Class 3 The value of percent of control at 10^−7 M was more than 60% or the value of IC50 was more than 200 nM.). For the compound `CN(C)c1nc(N[C@H]2CC[C@@H](CNC(=O)Nc3ccc(F)c(Cl)c3)CC2)nc2c1CCCC2` [compound 2496], the class under setting [1] was 3 (Class 3 The value of percent of control at 10^−7 M was more than 60% or the value of IC50 was more than 200 nM.). Consider `Cc1cnc(N[C@H]2CC[C@@H](CNC(=O)c3ccccc3)CC2)nc1N(C)C` [compound 2690, N-[(cis-4-{[4-(dimethylamino)-5-methylpyrimidin-2-yl]amino}cyclohexyl)methyl]benzamide], for which the class under setting [2] is 3 (Class 3 The value of percent of control at 10^−7 M was more than 60% or the value of IC50 was more than 200 nM.).

Regarding `Cc1ccc(C(=O)NC[C@H]2CC[C@@H](Nc3ncc(C)c(N(C)C)n3)CC2)cc1` [compound 2691], the class under setting [2] was 3 (Class 3 The value of percent of control at 10^−7 M was more than 60% or the value of IC50 was more than 200 nM.). In the case of `Cc1cnc(N[C@H]2CC[C@@H](CNC(=O)c3ccc(F)c(F)c3)CC2)nc1N(C)C` [compound 2692, N-[(cis-4-{[4-(dimethylamino)-5-methylpyrimidin-2-yl]amino}cyclohexyl)methyl]-3,4-difluorobenzamide], under setting [2], the class is given as 2 (Class 2: The value of percent of control at 10^−7 M was from 40% to 60% or the value of IC′50 was from 50 nM to 200 nM.). The same measure, in the same setting: for `COc1ccc(C(=O)NC[C@H]2CC[C@@H](Nc3ncc(C)c(N(C)C)n3)CC2)cc1` [compound 2693] the value was 3 (Class 3 The value of percent of control at 10^−7 M was more than 60% or the value of IC50 was more than 200 nM.); for `COc1cc(OC)cc(C(=O)NC[C@H]2CC[C@@H](Nc3ncc(C)c(N(C)C)n3)CC2)c1` [compound 2694, N-[(cis-4-{[4-(dimethylamino)-5-methylpyrimidin-2-yl]amino}cyclohexyl)methyl]-3,5-dimethoxybenzamide], 1 (Class 1: The value of percent of control at 10^−7 M was less than 40% or the value of IC50 was less than 50 nM.). Same read-out and setting: for `Cc1ccc(C(=O)NC[C@H]2CC[C@@H](Nc3ncc(C)c(N(C)C)n3)CC2)cc1F` [compound 2695, N-[(cis-4-{[4-(dimethylamino)-5-methylpyrimidin-2-yl]amino}cyclohexyl)methyl]-3-fluoro-4-methylbenzamide] the value was 2 (Class 2: The value of percent of control at 10^−7 M was from 40% to 60% or the value of IC′50 was from 50 nM to 200 nM.); for `Cc1cc(C(=O)NC[C@H]2CC[C@@H](Nc3ncc(C)c(N(C)C)n3)CC2)ccc1F` [compound 2696], 2 (Class 2: The value of percent of control at 10^−7 M was from 40% to 60% or the value of IC′50 was from 50 nM to 200 nM.). Regarding `Cc1cnc(N[C@H]2CC[C@@H](CNC(=O)c3cccc(C(F)(F)F)c3)CC2)nc1N(C)C` [compound 2697, N-[(cis-4-{[4-(dimethylamino)-5-methylpyrimidin-2-yl]amino}cyclohexyl)methyl]-3-(trifluoromethyl)benzamide], under setting [2], the class was 1 (Class 1: The value of percent of control at 10^−7 M was less than 40% or the value of IC50 was less than 50 nM.). In the case of `Cc1cnc(N[C@H]2CC[C@@H](CNC(=O)c3ccc(C(F)(F)F)cc3)CC2)nc1N(C)C` [compound 2698], the class under setting [2] is 3 (Class 3 The value of percent of control at 10^−7 M was more than 60% or the value of IC50 was more than 200 nM.). The same measure, in the same setting: for `Cc1cnc(N[C@H]2CC[C@@H](CNC(=O)c3cccc(OC(F)(F)F)c3)CC2)nc1N(C)C` [compound 2699, N-[(cis-4-{[4-(dimethylamino)-5-methylpyrimidin-2-yl]amino}cyclohexyl)methyl]-3-(trifluoromethoxy)benzamide] the value was 2 (Class 2: The value of percent of control at 10^−7 M was from 40% to 60% or the value of IC′50 was from 50 nM to 200 nM.). Still for that read-out and setting: for `Cc1cnc(N[C@H]2CC[C@@H](CNC(=O)c3ccc(OC(F)(F)F)cc3)CC2)nc1N(C)C` [compound 2700, N-[(cis-4-{[4-(dimethylamino)-5-methylpyrimidin-2-yl]amino}cyclohexyl)methyl]-4-(trifluoromethoxy)benzamide] the value was 2 (Class 2: The value of percent of control at 10^−7 M was from 40% to 60% or the value of IC′50 was from 50 nM to 200 nM.). Turning to `Cc1cnc(N[C@H]2CC[C@@H](CNC(=O)c3ccc(C#N)cc3)CC2)nc1N(C)C` [compound 2701], the class under setting [2] is on record as 2 (Class 2: The value of percent of control at 10^−7 M was from 40% to 60% or the value of IC′50 was from 50 nM to 200 nM.). The same measure, in the same setting: for `Cc1cnc(N[C@H]2CC[C@@H](CNC(=O)c3ccc(Br)cc3)CC2)nc1N(C)C` [compound 2702] the value was 1 (Class 1: The value of percent of control at 10^−7 M was less than 40% or the value of IC50 was less than 50 nM.); for `Cc1cc(C(=O)NC[C@H]2CC[C@@H](Nc3ncc(C)c(N(C)C)n3)CC2)ccc1Br` [compound 2703, 4-bromo-N-[(cis-4-{[4-(dimethylamino)-5-methylpyrimidin-2-yl]amino}cyclohexyl)methyl]-3-methylbenzamide], 1 (Class 1: The value of percent of control at 10^−7 M was less than 40% or the value of IC50 was less than 50 nM.); for `Cc1cnc(N[C@H]2CC[C@@H](CNC(=O)c3ccc(F)c(Cl)c3)CC2)nc1N(C)C` [compound 2704], 1 (Class 1: The value of percent of control at 10^−7 M was less than 40% or the value of IC50 was less than 50 nM.). Same read-out and setting: for `Cc1cnc(N[C@H]2CC[C@@H](CNC(=O)c3ccc(C(F)(F)F)c(F)c3)CC2)nc1N(C)C` [compound 2705, N-[(cis-4-{[4-(dimethylamino)-5-methylpyrimidin-2-yl]amino}cyclohexyl)methyl]-3-fluoro-4-(trifluoromethyl)benzamide] the value was 2 (Class 2: The value of percent of control at 10^−7 M was from 40% to 60% or the value of IC′50 was from 50 nM to 200 nM.); for `Cc1cnc(N[C@H]2CC[C@@H](CNC(=O)c3cc(Cl)cc(Cl)c3)CC2)nc1N(C)C` [compound 2706, 3,5-dichloro-N-[(cis-4-{[4-(dimethylamino)-5-methylpyrimidin-2-yl]amino}cyclohexyl)methyl]benzamide], 1 (Class 1: The value of percent of control at 10^−7 M was less than 40% or the value of IC50 was less than 50 nM.); for `Cc1cnc(N[C@H]2CC[C@@H](CNC(=O)c3ccc(Cl)c(Cl)c3)CC2)nc1N(C)C` [compound 2707, 3,4-dichloro-N-[(cis-4-{[4-(dimethylamino)-5-methylpyrimidin-2-yl]amino}cyclohexyl)methyl]benzamide], 1 (Class 1: The value of percent of control at 10^−7 M was less than 40% or the value of IC50 was less than 50 nM.). With `Cc1cnc(N[C@H]2CC[C@@H](CNC(=O)c3ccc4c(c3)OC(F)(F)O4)CC2)nc1N(C)C` [compound 2708], under setting [2], the class is recorded as 2 (Class 2: The value of percent of control at 10^−7 M was from 40% to 60% or the value of IC′50 was from 50 nM to 200 nM.). On the same count and under the same terms, for `Cc1cnc(N[C@H]2CC[C@@H](CNC(=O)c3ccc(-c4ccccc4)cc3)CC2)nc1N(C)C` [compound 2709] the value was 3 (Class 3 The value of percent of control at 10^−7 M was more than 60% or the value of IC50 was more than 200 nM.). On the same count and under the same terms, for `Cc1cnc(N[C@H]2CC[C@@H](CNC(=O)c3ccc(Cl)cc3)CC2)nc1N(C)C` [compound 2710, 4-chloro-N-[(cis-4-{[4-(dimethylamino)-5-methylpyrimidin-2-yl]amino}cyclohexyl)methyl]benzamide] the value was 2 (Class 2: The value of percent of control at 10^−7 M was from 40% to 60% or the value of IC′50 was from 50 nM to 200 nM.); for `COc1cc(OC)cc(C(=O)NC[C@H]2CC[C@@H](Nc3nc(C)cc(N(C)C)n3)CC2)c1` [compound 2711], 2 (Class 2: The value of percent of control at 10^−7 M was from 40% to 60% or the value of IC′50 was from 50 nM to 200 nM.).

`Cc1cnc(NC[C@H]2CC[C@@H](NC(=O)c3ccccc3)CC2)nc1N(C)C` [compound 2712, N-[cis-4-({[4-(dimethylamino)-5-methylpyrimidin-2-yl]amino}methyl)cyclohexyl]benzamide]: under setting [2], the class was 3 (Class 3 The value of percent of control at 10^−7 M was more than 60% or the value of IC50 was more than 200 nM.).

(Values after patent US20050197350A1, “Novel quinoline, tetrahydroquinazoline, and pyrimidine derivatives and methods of treatment related to the use thereof” (TAISHO PHARMACEUTICAL CO., LTD., priority 2003, published 2005).)
